The record followed here is patent US20210055311A1, “SCREENING METHOD FOR ESTROGENIC AND ANTI-ESTROGENIC ACTIVITY” (BUNDESINSTITUT FÜR RISIKOBEWERTUNG, priority 2018, published 2021).

Entries after “also recorded” stand apart in the source; their conditions may differ.

This experiment relates to MCF7/vBOS cells (DSM ACC3321). The experiment is described as follows: Formation of discontinuous basolateral adherens junctions upon anti-estrogen exposure (E-Cadherin immunofluorescence). The format is cell-based, human. As to conditions: for formation of discontinuous adherens junctions (E-Cadherin staining): concentration and incubation time per compound as in FIGS. 1-3. The source says:
The time usually required for formation of discontinuous basolateral adherens junctions will depend on the estrogen receptor binding affinity and concentration of the anti-estrogen used on the one hand and the cell used on the other hand, but a person skilled in the art will be readily capable of determining the appropriate time spans and concentration for a given anti-estrogen and cell. For example, if the cell is a cell as deposited under accession number DSM ACC3321, suitable concentration ranges and culture times for manifestation of the discontinuous basolateral adherens junctions phenotype in presence of fulvestrant, tamoxifen, ZK 164015, MPP dihydrochloride, and (Z)-4-hydroxytamoxifen, without being limited thereto, are:
MCF7/vBOS cells were grown on glass coverslips in multi-well tissue culture plates (TPP) for 24 h and then treated for at least 48 h with 0.1% EtOH (solvent control) and different concentrations (10^−11 M, 10^−10 M, 10^−9 M, 10^−8 M, 10^−7 M) of the ERα antagonist fulvestrant (Sigma-Aldrich, CAS-No. 129453-61-8). During experiments, medium was exchanged on a daily basis. All experiments were performed at 37° C. with 5% CO2 in reduced-serum medium (phenol red-free DMEM (Gibco), 5% FBS (Biochrom, S 0615, LOT1353 W), 1% glutamine, 100 μg/ml streptomycin/100 U/ml penicillin (Biochrom)).
After treatment with fulvestrant the adherens junction morphology of the cells was analysed by means of immunofluorescence microscopy. Briefly, cells were fixed with 3.7% formaldehyde in PBS for 15 min, permeabilized with 0.2% Triton X-100 in PBS for 30 min, and blocked with 5% FBS in PBS for 60 min (all steps at room temperature). Incubation with primary and secondary antibodies in PBS containing 1.5% BSA was carried out over night at 4° C. and for 1 h at room temperature, respectively. The following antibodies/dyes were used: anti-E-Cadherin (H-108, Santa Cruz); DAPI (Roche); secondary antibody conjugated to Cy3 (alternatives are, e.g.: Cy2, Alexa Fluor 488/555/647; all Invitrogen). The samples were then mounted in Dako fluorescence mounting medium (Dako) or VectaShield (Vector Labs). All images were acquired with an Axio Observer.Z1 widefield microscope equipped with an Apotome.2 device for optical sectioning using structured illumination (Zeiss). After 48 hours the fraction of cells displaying discontinuous adherens junctions was determined by CellProfiler/CellProfer-analyst software (see example 7).
In view of the results obtained with MCF7/vBOS cells upon exposure to fulvestrant the inventors speculated that a similar phenotype might be obtainable with other ERα antagonist as well. To test this hypothesis, the inventors used the ERα antagonists tamoxifen (Sigma-Aldrich, CAS-No. 10540-29-1), MPP dihydrochloride (Sigma-Aldrich, CAS-No. 911295-24-4), ZK164015 (Tocris, CAS-No. 177583-70-9), and (Z)-4-hydroxytamoxifen (Tocris, CAS-No. 68047-06-3). The same protocols as in example 2 were used with the following deviations: • Tamoxifen: Cells were grown for 24 h and then treated for 144 h with 10^−8 and 10^−6 M tamoxifen. • MPP dihydrochloride: Cells were grown for 24 h and then treated for 144 h with 10^−8 and 10^−6 M MPP dihydrochloride. • ZK164015: Cells were grown for 24 h and then treated for 48 h with 10^−9 and 10^−7 M ZK164015. • (Z)-4-hydroxytamoxifen: Cells were grown for 24 h and then treated for 72 h with 10^−9 and 10^−8 M (Z)-4-hydroxytamoxifen.
Subsequently, quantitative image analysis was performed using a pipeline that builds on the CellProfiler software (Carpenter et al., Genome Biol., 2006; 7(10):R100.) for segmentation and extraction of cellular parameters, and on the CellProfiler Analyst software (Jones et al., BMC Bioinformatics, 2008 Nov. 15; 9:482) for parameter-based classification of cells. In the segmentation process, primary objects (nuclei) were identified from DAPI staining by global thresholding using Otsu's method. […]

Setting [1] is: cell as deposited under DSM ACC3321.

As for `C[C@]12CC[C@@H]3c4ccc(O)cc4C[C@@H](CCCCCCCCC[S+]([O-])CCCC(F)(F)C(F)(F)F)[C@H]3[C@@H]1CC[C@@H]2O` (stereo partly shown) [Fulvestrant], the “activity in this assay relative to tamoxifen, ZK164015, MPP or (Z)-4-hydroxytamoxifen” value is “more active”; the “time after treatment within which discontinuous adherence junctions form” value is “two”; the “time within which discontinuous basolateral adherens junctions have stably formed” value was in the range of 28 to 48 h; the “formation of discontinuous adherens junctions (E-Cadherin staining)” value is “triggers the formation of discontinuous adherence junctions”. For the same molecule, the “stability of discontinuous basolateral adherens junctions without adding additional anti-estrogens” value (after stable formation) was not below 72 h. For the same molecule, under setting [1], the “Concentration (M) suitable for manifestation of the discontinuous basolateral adherens junctions phenotype” value is 10^−9-10^−7 M and the “Culture time (h) typically required for formation of discontinuous basolateral adherens junctions” value was 24 to 96 h. Also, the “formation of discontinuous adherens junctions (E-Cadherin staining)” value (listed as fulvestrant) is on record as “formation of discontinuous adherens junctions; also recorded: morphology changes”. Further, for the setting “different concentrations, 48 hours”, the “fraction of cells with continuous / discontinuous adherens junctions (CellProfiler quantification)” value is “fraction of cells with continuous adherens junctions decreased while the fraction of cells with discontinuous adherens junctions increased”. The “minimal concentration for appearance of discontinuous adherens junctions” value (treatment for 48 hours, 10^−11 to 10^−7 M tested) was 10^−9 M.
